Source: US8501953B2, “PKM2 modulators for use in the treatment of cancer” (Agios Pharmaceuticals, Inc, priority 2009, dated 2013)

Target: PKM2 (Homo sapiens, UniProt P14618)
Experiment: PKM2 Assay (activation; LDH-coupled, NADH absorbance at 340 nm)
Type: biochemical
Conditions: PKM2 50 ng/well, ADP 0.7 mM, PEP 0.15 mM, no FBP in Reaction Mix
Protocol: • PKM2 stock enzyme solution was diluted in Reaction Buffer • 2 μL of compound was added into each well first, and then 180 μL of the Reaction Mix was added. • Reaction mixture with compound (without ADP) were incubated for 30 minutes at 4° C. • Plates were re-equilibrated to room temperature prior to adding 20 μL ADP to initiate the reaction. • Reaction progress was measured as changes in absorbance at 340 nm wavelength at room temperature (25° C.) Reaction Mix: PKM2 (50 ng/well), ADP (0.7 mM), PEP (0.15 mM), NADH (180 μM), LDH (2 units) in Reaction Buffer Reaction Buffer: 100 mM KCl, 50 mM Tris pH 7.5, 5 mM MgCl2, 1 mM DTT, 0.03% BSA.

Chain of PKM2 (P14618 whole entry): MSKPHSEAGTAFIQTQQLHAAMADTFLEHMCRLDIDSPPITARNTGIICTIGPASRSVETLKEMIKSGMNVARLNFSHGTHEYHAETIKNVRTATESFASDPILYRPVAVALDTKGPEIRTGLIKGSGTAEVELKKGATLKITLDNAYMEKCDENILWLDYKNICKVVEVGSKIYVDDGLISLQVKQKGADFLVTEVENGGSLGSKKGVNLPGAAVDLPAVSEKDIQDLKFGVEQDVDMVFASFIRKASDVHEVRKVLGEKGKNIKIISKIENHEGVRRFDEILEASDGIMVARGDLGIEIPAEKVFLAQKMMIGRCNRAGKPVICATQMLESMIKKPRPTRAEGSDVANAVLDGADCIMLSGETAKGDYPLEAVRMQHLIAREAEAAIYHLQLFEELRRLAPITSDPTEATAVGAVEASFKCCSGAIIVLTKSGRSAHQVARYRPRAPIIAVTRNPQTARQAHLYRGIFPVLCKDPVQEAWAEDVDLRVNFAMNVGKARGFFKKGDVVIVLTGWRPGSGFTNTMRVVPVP

Row | SMILES | AC50 [µM]
1 | Cc1ccc(COC(=O)N2CCN(S(=O)(=O)c3cc4oc(=O)n(C)c4cc3C)CC2)cc1 | 1 to 10
2 | COc1ccc(Cl)cc1S(=O)(=O)Nc1cc2c(cc1F)oc(=O)n2C | 10 to 50
3 | Cn1c(=O)sc2cc(S(=O)(=O)N3CCCN(S(=O)(=O)c4ccccc4)CC3)ccc21 | 1 to 10
4 | Cc1cc2oc(=O)n(C)c2cc1S(=O)(=O)N1CCN(c2ccc(C(F)(F)F)cn2)CC1 | 1 to 10
5 | Cc1cc2c(cc1S(=O)(=O)Nc1ccccc1Cl)oc(=O)n2C | 1 to 10
6 | O=c1[nH]c2cc(NS(=O)(=O)c3cccs3)ccc2o1 | 10 to 50
7 | Cc1cc2oc(=O)n(C)c2cc1S(=O)(=O)Nc1cc(F)cc(Cl)c1 | 1 to 10
8 | COc1ccc(S(=O)(=O)N2CCCN(S(=O)(=O)c3ccc4c(c3)sc(=O)n4C)CC2)cc1 | 1 to 10
9 | Cn1c(=O)oc2cc(S(=O)(=O)N3CCN(S(=O)(=O)c4c(F)cccc4F)CC3)ccc21 | 1 to 10
10 | Cc1cc2oc(=O)n(C)c2cc1NS(=O)(=O)c1ccccc1C | 1 to 10
11 | COc1ccc(Cl)cc1NS(=O)(=O)c1cc2oc(=O)n(C)c2cc1C | 1 to 10
12 | COc1ccc(Cl)cc1S(=O)(=O)Nc1cc2[nH]c(=O)oc2cc1C | 1 to 10
13 | Cc1cc2c(cc1NS(=O)(=O)c1cccs1)oc(=O)n2C | 10 to 50
14 | COc1ccc(S(=O)(=O)Nc2cc3[nH]c(=O)oc3cc2Cl)cc1OC | > 100
15 | Cc1cc2c(cc1S(=O)(=O)N1CCN(c3ccc(C(F)(F)F)cn3)CC1)oc(=O)n2C | 1 to 10
16 | CCc1cccc(NS(=O)(=O)c2cc3c(cc2C)oc(=O)n3C)c1 | < 1
17 | Cc1cc2c(cc1S(=O)(=O)N1CCCN(c3ccc(C(F)(F)F)cn3)CC1)oc(=O)n2C | 1 to 10
18 | Cc1cc2sc(=O)sc2cc1S(=O)(=O)Nc1ccccc1Cl | 1 to 10
19 | COc1ccc(Cl)cc1S(=O)(=O)Nc1ccc2oc(=O)[nH]c2c1 | 10 to 50
20 | COc1ccc(C)cc1S(=O)(=O)Nc1ccc(NS(=O)(=O)c2ccc3c(c2)oc(=O)n3C)cc1 | 1 to 10
21 | Cc1cc2oc(=O)n(C)c2cc1NS(=O)(=O)c1c(F)cccc1F | > 100
22 | COc1ccc(Cl)cc1NS(=O)(=O)c1cc2c(cc1Cl)oc(=O)n2C | 1 to 10
23 | Cc1cc(C)cc(NS(=O)(=O)c2cc3c(cc2C)oc(=O)n3C)c1 | < 1

Other lines, results leading:

Row | AC50 [µM] | SMILES
24 | < 1 | Cc1cc2oc(=O)n(C)c2cc1S(=O)(=O)Nc1ccc(F)c(Cl)c1
25 | 1 to 10 | CCn1c(=O)sc2ccc(NS(=O)(=O)c3cc(Cl)ccc3OC)cc21
26 | < 1 | Cn1c(=O)sc2cc(S(=O)(=O)N3CCN(S(=O)(=O)c4c(F)cccc4F)CC3)ccc21
27 | 1 to 10 | CCn1c(=O)oc2cc(S(=O)(=O)Nc3ccc(F)cc3)ccc21
28 | < 1 | Cn1c(=O)sc2cc(S(=O)(=O)Nc3ccc(F)c(Cl)c3)ccc21
29 | 10 to 50 | Cn1c(=O)sc2ccc(NS(=O)(=O)c3cccs3)cc21
30 | < 1 | Cn1c(=O)sc2cc(S(=O)(=O)Nc3ccc4ccccc4c3)ccc21
31 | 10 to 50 | COc1ccc(Cl)cc1NS(=O)(=O)c1ccc2sc(=O)sc2c1
32 | < 1 | Cc1cc(NS(=O)(=O)c2ccc3c(c2)sc(=O)n3C)ccc1F
33 | < 1 | COCCn1c(=O)oc2cc(S(=O)(=O)Nc3ccc(F)c(C)c3)cc(C)c21
34 | < 1 | Cc1cc(NS(=O)(=O)c2cc(C)c3c(c2)oc(=O)n3C)ccc1F
35 | 1 to 10 | Cn1c(=O)oc2cc(S(=O)(=O)Nc3ccc(OC(F)(F)F)c(Cl)c3)ccc21
36 | 1 to 10 | COc1ccc(C)cc1S(=O)(=O)Nc1ccc2sc(=O)n(C)c2c1
37 | < 1 | Cc1cc(S(=O)(=O)Nc2cccc(Cl)c2)cc2oc(=O)n(C)c12
38 | 10 to 50 | CCn1c(=O)oc2cc(S(=O)(=O)Nc3ccc(F)cc3)c(C)cc21
39 | 1 to 10 | Cc1cc2oc(=O)n(C)c2cc1S(=O)(=O)Nc1ccccc1F
40 | 1 to 10 | Cc1ccc(NS(=O)(=O)c2ccc3c(c2)oc(=O)n3C)cc1F
41 | 10 to 50 | Cc1cc2oc(=O)n(C)c2cc1NS(=O)(=O)c1cccc(Cl)c1
42 | < 1 | Cn1c(=O)oc2cc(S(=O)(=O)Nc3cc(Cl)cc(Cl)c3)ccc21
43 | 10 to 50 | COc1ccc(Cl)cc1S(=O)(=O)Nc1ccc2sc(=O)n(C)c2c1
